Source: ChEMBL document CHEMBL1201862, “PubChem BioAssay data set” (2004)
Where a name gives a salt, the structure may show the parent alone. Active and inactive are the calls of the source.

Tests used:
[1] = target: T1, DNA repair protein RAD52 homolog (Homo sapiens, UniProt P43351); format: functional, biochemical
T1 sequence (P43351 whole entry): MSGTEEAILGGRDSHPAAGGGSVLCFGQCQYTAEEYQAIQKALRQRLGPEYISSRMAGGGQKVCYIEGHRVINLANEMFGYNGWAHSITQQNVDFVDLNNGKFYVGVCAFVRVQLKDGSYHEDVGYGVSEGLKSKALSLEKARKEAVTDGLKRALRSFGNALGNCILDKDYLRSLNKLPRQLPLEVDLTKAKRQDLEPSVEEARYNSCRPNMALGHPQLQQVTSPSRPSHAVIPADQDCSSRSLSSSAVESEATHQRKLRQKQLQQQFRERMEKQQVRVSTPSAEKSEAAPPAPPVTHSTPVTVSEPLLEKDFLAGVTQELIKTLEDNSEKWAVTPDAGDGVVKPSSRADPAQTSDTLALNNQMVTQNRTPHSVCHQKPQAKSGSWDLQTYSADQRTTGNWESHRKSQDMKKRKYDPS

[2] = target: T2, Fructose-bisphosphate aldolase (Mycobacterium tuberculosis, UniProt P9WQA3); experiment: Fluorescence-based biochemical high throughput dose response assay for inhibitors of the fructose-bisphosphate aldolase (FBA) of M. tuberculosis.; format: functional
T2 sequence (P9WQA3 whole entry): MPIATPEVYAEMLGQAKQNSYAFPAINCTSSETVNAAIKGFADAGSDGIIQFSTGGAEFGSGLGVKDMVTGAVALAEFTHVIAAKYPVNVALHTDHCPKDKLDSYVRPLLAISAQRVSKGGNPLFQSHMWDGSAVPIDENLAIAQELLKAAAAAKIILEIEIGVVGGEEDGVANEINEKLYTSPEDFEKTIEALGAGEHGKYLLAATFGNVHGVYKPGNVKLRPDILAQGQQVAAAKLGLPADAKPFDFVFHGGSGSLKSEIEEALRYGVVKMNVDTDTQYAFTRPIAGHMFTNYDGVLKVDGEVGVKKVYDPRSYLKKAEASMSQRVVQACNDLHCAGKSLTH

H9c2 = experiment: cells; format: functional, cell-based; conditions: Rattus norvegicus, H9c2, Myocardium;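 note: confirmatory concentration-response retest of ultra-high-throughput screening hits for modulation of myocardial damage; cell death induced by hydrogen peroxide oxidative stress; compound pretreatment for 60 min then peroxide exposure for 2 h; potency is for protecting the cells against peroxide damage rather than for killing them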
[3] = target: T3, Adenosylmethionine-8-amino-7-oxononanoate aminotransferase (Mycobacterium tuberculosis, UniProt P9WQ81); experiment: Mycobacterium tuberculosis BioA enzyme inhibitor Measured in Biochemical System Using Plate Reader - 2163-02_Inhibitor_Dose_CherryPick_Activity.; format: functional, Mycobacterium tuberculosis UT205
T3 sequence (P9WQ81 whole entry): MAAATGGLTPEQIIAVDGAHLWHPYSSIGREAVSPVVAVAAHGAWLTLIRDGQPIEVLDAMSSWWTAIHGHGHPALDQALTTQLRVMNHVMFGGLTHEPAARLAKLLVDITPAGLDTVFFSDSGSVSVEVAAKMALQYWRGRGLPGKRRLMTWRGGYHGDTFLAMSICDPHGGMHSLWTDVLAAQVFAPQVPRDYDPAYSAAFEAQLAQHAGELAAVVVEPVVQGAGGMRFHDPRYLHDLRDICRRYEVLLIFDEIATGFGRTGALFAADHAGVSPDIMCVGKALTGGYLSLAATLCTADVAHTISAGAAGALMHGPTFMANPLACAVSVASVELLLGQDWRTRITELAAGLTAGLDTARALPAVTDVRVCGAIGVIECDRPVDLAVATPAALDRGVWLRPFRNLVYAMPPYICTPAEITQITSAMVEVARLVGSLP

[4] = THP-1 cell cytotoxicity, dose response, cytotoxicity control for non-replicating M. tuberculosis project (AID 489025); format: functional
[5] = target: DNA dC->dU-editing enzyme APOBEC-3G (Homo sapiens, UniProt Q9HC16); experiment: Dose Response confirmation of small molecule APOBEC3G DNA Deaminase Inhibitors via a fluorescence-based single-stranded DNA deaminase assay. [Related pubchem assays (depositor defined):AID493012, AID493028]; format: functional
Chain of DNA dC->dU-editing enzyme APOBEC-3G (Q9HC16 whole entry): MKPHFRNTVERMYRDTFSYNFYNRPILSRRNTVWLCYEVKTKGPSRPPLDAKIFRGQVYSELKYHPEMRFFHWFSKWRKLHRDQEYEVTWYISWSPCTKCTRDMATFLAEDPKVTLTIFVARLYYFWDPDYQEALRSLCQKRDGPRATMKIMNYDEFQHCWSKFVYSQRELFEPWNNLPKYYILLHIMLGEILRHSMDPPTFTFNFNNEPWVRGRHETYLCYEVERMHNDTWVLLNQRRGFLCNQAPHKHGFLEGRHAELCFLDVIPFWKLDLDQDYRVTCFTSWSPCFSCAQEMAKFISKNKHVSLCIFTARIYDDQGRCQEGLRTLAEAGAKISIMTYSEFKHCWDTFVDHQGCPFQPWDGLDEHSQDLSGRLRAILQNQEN

[6] = target: Heat shock protein HSP 90-alpha (Homo sapiens, UniProt P07900); format: functional, organism-based
[7] = target: DNA dC->dU-editing enzyme APOBEC-3A (Homo sapiens, UniProt P31941); experiment: A3A deaminase inhibition for selectivity – biochemical, dose response (AID 504722); format: functional
Chain of DNA dC->dU-editing enzyme APOBEC-3A (P31941 whole entry): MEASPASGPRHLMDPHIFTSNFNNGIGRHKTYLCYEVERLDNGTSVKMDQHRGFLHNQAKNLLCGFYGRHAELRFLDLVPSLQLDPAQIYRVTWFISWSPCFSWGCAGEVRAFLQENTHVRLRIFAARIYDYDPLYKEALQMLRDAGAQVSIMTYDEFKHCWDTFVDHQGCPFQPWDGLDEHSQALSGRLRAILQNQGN

[8] = target: T4, Trace amine-associated receptor 1 (Homo sapiens, UniProt Q96RJ0); experiment: Counterscreen for agonists of the human trace amine associated receptor 1 (hTAAR1): Fluorescence-based cell-based high throughput dose response assay to identify hTAAR1 agonist that also desensitize TAAR1 receptor response.; format: functional
T4 sequence (Q96RJ0 whole entry): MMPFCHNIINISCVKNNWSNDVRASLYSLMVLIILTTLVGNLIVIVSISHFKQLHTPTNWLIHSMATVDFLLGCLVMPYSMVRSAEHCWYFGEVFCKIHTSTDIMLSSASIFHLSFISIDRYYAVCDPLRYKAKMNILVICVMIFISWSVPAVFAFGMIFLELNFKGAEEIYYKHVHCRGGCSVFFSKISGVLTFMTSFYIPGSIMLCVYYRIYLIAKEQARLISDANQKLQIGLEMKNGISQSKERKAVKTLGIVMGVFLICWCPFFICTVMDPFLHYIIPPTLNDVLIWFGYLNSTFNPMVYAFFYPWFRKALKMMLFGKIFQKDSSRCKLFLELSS

cells [9] = format: functional, cell-based
[10] = target: T4, Trace amine-associated receptor 1; experiment: Fluorescence-based cell-based high throughput dose response assay to identify agonists of the human trace amine associated receptor 1 (TAAR1).; format: functional
cells [11] = format: functional, cell-based; remark: listed apart in the source
[12] = target: T5, Corticotropin-releasing factor receptor 2/Corticotropin-releasing factor-binding protein (Homo sapiens, UniProt P24387+Q13324); experiment: Dose Response confirmation of uHTS hits for small molecule antagonists of the CRF-binding protein and CRF-R2 receptor complex.; format: functional; conditions: read-out: IC50_Mean
T5 sequence (Q13324 whole entry): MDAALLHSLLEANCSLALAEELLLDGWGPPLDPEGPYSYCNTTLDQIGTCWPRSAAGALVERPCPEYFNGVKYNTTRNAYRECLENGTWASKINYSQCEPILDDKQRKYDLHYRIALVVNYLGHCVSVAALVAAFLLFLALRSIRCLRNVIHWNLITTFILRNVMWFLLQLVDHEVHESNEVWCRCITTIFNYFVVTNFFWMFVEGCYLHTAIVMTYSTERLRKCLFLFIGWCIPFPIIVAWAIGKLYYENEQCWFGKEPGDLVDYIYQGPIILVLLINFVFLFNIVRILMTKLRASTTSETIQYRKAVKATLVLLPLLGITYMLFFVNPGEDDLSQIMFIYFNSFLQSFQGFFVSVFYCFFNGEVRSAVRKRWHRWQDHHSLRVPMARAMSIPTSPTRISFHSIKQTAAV
T5 sequence (P24387 whole entry): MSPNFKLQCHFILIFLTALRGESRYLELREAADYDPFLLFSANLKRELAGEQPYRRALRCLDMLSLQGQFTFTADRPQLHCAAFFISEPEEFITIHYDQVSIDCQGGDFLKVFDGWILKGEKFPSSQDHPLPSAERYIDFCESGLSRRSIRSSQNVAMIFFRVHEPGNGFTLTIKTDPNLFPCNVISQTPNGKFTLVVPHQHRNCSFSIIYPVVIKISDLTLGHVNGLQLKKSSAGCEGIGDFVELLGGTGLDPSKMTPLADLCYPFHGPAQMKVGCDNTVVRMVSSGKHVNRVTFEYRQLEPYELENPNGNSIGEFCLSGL

[13] = blockers of CRF-binding protein–CRF-R2 complex – cell-based, uHTS hits, 384-well, dose response (AID 651639); format: functional, Homo sapiens; conditions: read-out: IC50_Mean
[14] = target: T5, Corticotropin-releasing factor receptor 2/Corticotropin-releasing factor-binding protein; experiment: activators of CRF receptor 2 with binding protein – uHTS hits, confirmation (AID 602473); format: functional; conditions: read-out: EC50_Mean
[15] = target: T6, Small ubiquitin-related modifier 1 (Homo sapiens, UniProt P63165); experiment: SUMO1 protein interaction blockers, potency – biochemical, fluorescence polarization, uHTS hits, dose response (AID 624382); format: functional; conditions: read-out: IC50_Mean
T6 sequence (P63165 whole entry): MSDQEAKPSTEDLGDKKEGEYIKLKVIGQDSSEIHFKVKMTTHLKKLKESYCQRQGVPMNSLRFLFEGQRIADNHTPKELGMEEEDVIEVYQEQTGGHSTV

[16] = target: 72 kDa type IV collagenase (Homo sapiens, UniProt P08253); experiment: Dose Response validation of uHTS RPN11 inhibitor hits using a MMP-2 Fluorescence assay.; format: functional
Chain of 72 kDa type IV collagenase (P08253 whole entry): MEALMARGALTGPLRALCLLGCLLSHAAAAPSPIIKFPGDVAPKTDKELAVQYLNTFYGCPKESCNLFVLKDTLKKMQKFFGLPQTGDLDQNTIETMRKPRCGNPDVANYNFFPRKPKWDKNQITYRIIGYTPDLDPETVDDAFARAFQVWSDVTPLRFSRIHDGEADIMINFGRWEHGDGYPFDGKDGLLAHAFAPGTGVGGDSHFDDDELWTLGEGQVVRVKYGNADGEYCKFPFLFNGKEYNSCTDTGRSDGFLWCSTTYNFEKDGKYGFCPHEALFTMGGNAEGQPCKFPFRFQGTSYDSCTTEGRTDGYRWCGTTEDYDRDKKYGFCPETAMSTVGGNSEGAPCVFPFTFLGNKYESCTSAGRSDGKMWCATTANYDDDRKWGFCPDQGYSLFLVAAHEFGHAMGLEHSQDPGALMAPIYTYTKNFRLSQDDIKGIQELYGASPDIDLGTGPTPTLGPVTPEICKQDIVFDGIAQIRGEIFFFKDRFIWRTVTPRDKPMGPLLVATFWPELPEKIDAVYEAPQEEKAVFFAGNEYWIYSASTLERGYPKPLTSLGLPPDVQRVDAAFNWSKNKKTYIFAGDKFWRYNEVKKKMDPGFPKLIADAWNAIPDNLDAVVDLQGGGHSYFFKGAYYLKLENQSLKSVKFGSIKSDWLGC

Prothrombin = Prothrombin (Bos taurus, UniProt P00735); experiment: thrombin protease inhibitors – biochemical, fluorescence polarization, uHTS hits, dose response (AID 602369); format: functional
[17] = target: T6, Small ubiquitin-related modifier 1; experiment: SUMO1 protein-protein binding blockers, potency – biochemical, FRET, dose response (AID 624383); format: functional; conditions: read-out: IC50_Mean
[18] = target: 26S proteasome non-ATPase regulatory subunit 14 (Homo sapiens, UniProt O00487); experiment: inhibition of proteasome subunit RPN11 – biochemical, fluorescence polarization, uHTS hits, confirmation (AID 602368); format: functional
Chain of 26S proteasome non-ATPase regulatory subunit 14 (O00487 whole entry): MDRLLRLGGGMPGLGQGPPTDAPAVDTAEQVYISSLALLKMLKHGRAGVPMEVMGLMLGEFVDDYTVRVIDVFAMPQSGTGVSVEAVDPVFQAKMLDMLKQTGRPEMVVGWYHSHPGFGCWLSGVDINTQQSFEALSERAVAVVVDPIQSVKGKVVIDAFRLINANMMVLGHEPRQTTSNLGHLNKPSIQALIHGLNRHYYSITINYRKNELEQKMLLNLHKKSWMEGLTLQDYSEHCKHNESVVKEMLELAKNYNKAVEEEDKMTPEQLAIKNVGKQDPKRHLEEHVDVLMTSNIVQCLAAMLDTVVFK

[19] = tested on: Streptococcus sp. 'group A'; experiment: Streptococcus pyogenes SK(-)GAS viability under kanamycin – luminescence, BacTiterGlo, confirmation, counter-screen for streptokinase expression inhibitor project, dose response (AID 1900); format: functional, organism-based
Streptococcus = experiment: GAS UMAA2166 growth inhibition – luminescence, BacTiterGlo, counter-screen for streptokinase expression inhibitor project, dose response (AID 1915); format: functional, organism-based;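 note: potency for reduction of bacterial viability or growth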
Streptokinase A = target: T7, Streptokinase A (Streptococcus pyogenes serotype M1, UniProt P10520); experiment: viability-normalized secreted streptokinase activity reduction – plasminogen activation absorbance, OD405, dose response (AID 1914); format: functional, Streptococcus pyogenes M1 GAS;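 note: secreted streptokinase activity via plasminogen activation per viability signal from cell pellet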
T7 sequence (P10520 whole entry): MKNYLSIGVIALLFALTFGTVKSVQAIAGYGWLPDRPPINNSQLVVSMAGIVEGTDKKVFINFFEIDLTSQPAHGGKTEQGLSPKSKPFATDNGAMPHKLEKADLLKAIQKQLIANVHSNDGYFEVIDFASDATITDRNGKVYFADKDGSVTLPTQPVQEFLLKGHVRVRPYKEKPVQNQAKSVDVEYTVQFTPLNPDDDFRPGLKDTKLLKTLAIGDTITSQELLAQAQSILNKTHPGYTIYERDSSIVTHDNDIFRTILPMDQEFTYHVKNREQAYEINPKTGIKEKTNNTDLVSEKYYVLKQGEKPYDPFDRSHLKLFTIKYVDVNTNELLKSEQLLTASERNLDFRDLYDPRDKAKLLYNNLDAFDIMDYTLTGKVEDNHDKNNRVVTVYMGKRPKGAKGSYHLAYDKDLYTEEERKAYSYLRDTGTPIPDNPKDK

[20] = Luminescence Cell-Based Dose Retest to Confirm Inhibitors of Cancer Stem Cells. [Related pubchem assays (depositor defined):AID2717, AID2721]; format: functional; conditions: Homo sapiens

CCn1c(C)c(C(C)=O)c(NCc2ccccc2)nc1=S
AC50 [1]: 11 µM (active)

CC1(C)CC(=O)C2=C(C1)N(CCN1CCOCC1)C1=C(C(=O)CC(C)(C)C1)C2c1ccc(Cl)cc1
IC50 [2]: 2.33 µM (active) | IC50 (H9c2): > 79 µM (inactive)

CC(=O)c1ccc(NC(=O)CN2CCN(c3ccccc3)CC2)cc1
AC50 [3]: 8.6 µM (active)

O=C(Nc1ccc(Cl)cc1Cl)c1cccc(N2C(=O)C=CC2=O)c1
CC50 [4]: > 40 µM (active) | IC50 [5]: 13.8 µM (active) | AC50 [6]: 0.295 µM (active) | IC50 [7]: > 100 µM (inactive)

CCc1ccc(N2CN(CCc3ccccc3)CN=C2S)cc1
IC50 [8]: 9.18 µM (active) | IC50 (cells [9]): > 29.9 µM (inactive) | EC50 [10]: 2.26 µM (active) | EC50 (cells [11]): > 29.9 µM (inactive)

O=S(=O)(NCCc1ccccc1)c1ccc(F)cc1
IC50 [8]: 4.22 µM (active) | IC50 (cells [9]): > 29.9 µM (inactive) | EC50 [10]: 1.37 µM (active) | EC50 (cells [11]): > 29.9 µM (inactive)

CNC(=O)C[C@H]1CC[C@@H]2[C@H](COC[C@@H](O)CN2C(=O)Nc2ccc3c(c2)OCO3)O1
AC50 [3]: 10.4 µM (active)

Cc1nn(S(=O)(=O)c2cccs2)c(C)c1Sc1ccc([N+](=O)[O-])cc1
IC50 [12]: < 0.368 µM (active) | IC50 [13]: 12.8 µM (active) | EC50 [14]: > 53 µM (inactive)

CC1(C)Oc2cc3oc(C(=O)O)cc(=O)c3cc2-c2ccccc21
IC50 [2]: > 0.37 µM (active)

COc1ccc(C2c3c(oc4ccc(Cl)cc4c3=O)C(=O)N2CCN2CCOCC2)cc1 (configuration not stated)
AC50 [3]: 3.7 µM (active)

CCC(CO)Oc1cc(NC(=O)c2ccc(N)cc2)c2ncn(C(C)C)c2c1 (configuration not stated)
IC50 [15]: > 66.6 µM (inactive) | IC50 [16]: 64.6 µM (active) | IC50 (Prothrombin): > 100 µM (inactive) | IC50 [17]: 9.23 µM (active) | IC50 [18]: 19.6 µM (active)

O=C(c1ccc(S(=O)(=O)Nc2ccccc2F)cc1)N1CCN(c2ccccc2O)CC1
AC50 [3]: 3.62 µM (active)

c1ccc2c(c1)CCCC2C1=NCCN1 (configuration not stated) [TETRAHYDROZOLINE HYDROCHLORIDE]
IC50 [8]: 0.157 µM (active) | IC50 (cells [9]): > 29.9 µM (inactive) | EC50 [10]: 0.154 µM (active) | EC50 (cells [11]): > 29.9 µM (inactive)

CC1=CC(C)(C)N2C(=O)C3(C(C#N)=C(N)Oc4cc(O)ccc43)c3c(C)c(C)cc1c32 (configuration not stated)
IC50 [12]: 29.4 µM (active) | IC50 [13]: 16.5 µM (active) | EC50 [14]: > 53 µM (inactive)

O=C(Cc1nnc(O)nc1O)N/N=C/c1ccccc1
IC50 [8]: > 29.9 µM (inactive) | IC50 (cells [9]): > 29.9 µM (inactive) | EC50 [10]: > 29.9 µM (inactive) | EC50 (cells [11]): > 29.9 µM (inactive)

Cc1ccccc1-c1cc2nc(-c3ccc([N+](=O)[O-])cc3)cc(O)n2n1
EC50 [19]: 9.23 µM (active) | IC50 [12]: 4.74 µM (active) | IC50 [13]: 3.21 µM (active) | EC50 [14]: > 53 µM (inactive) | EC50 (Streptococcus): 60.1 µM (active) | EC50 (Streptokinase A): > 150 µM (not active)

Cn1cncc1C#Cc1c(-c2ccsc2)sc2ccccc12
AC50 [20]: 4.68 µM (active) | AC50 [6]: 7.16 µM (active)
